{"source": "patent US20150050299A1", "about": "“METHODS FOR ENHANCING IMMUNE RESPONSE” (priority 2010, published 2015)", "format_in_all_cases": "cell-based", "key": {"human TLR3": {"target": "T1, human TLR3 (Homo sapiens, UniProt O15455)", "T1 sequence (O15455 24-904)": "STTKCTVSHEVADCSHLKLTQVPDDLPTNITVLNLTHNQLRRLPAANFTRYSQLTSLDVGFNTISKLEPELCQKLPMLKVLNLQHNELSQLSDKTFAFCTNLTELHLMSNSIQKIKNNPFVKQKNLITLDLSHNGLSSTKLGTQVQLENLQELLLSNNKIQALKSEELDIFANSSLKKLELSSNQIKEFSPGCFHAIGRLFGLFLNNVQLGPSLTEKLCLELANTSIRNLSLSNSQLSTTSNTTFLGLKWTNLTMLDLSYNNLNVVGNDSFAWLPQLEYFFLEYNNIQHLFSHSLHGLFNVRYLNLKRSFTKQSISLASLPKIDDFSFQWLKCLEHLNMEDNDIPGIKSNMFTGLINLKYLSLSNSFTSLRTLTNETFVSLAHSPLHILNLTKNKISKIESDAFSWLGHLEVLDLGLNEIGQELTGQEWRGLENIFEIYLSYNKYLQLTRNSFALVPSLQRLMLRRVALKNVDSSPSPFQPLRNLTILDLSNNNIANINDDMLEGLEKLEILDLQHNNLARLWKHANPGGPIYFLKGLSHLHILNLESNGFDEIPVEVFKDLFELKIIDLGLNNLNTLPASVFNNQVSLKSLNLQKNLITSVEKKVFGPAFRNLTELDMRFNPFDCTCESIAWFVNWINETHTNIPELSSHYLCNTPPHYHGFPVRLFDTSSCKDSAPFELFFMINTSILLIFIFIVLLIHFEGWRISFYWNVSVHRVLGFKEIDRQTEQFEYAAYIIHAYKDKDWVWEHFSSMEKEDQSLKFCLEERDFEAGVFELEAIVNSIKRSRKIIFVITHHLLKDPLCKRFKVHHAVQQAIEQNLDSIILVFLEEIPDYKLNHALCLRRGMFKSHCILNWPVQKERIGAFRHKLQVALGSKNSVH", "assay": "Toll-Like Receptor (TLR) screening assay, TLR3", "conditions": "10 μM"}, "human TLR4": {"target": "human TLR4 (Homo sapiens, UniProt O00206+Q9Y6Y9)", "sequence (O00206 24-839)": "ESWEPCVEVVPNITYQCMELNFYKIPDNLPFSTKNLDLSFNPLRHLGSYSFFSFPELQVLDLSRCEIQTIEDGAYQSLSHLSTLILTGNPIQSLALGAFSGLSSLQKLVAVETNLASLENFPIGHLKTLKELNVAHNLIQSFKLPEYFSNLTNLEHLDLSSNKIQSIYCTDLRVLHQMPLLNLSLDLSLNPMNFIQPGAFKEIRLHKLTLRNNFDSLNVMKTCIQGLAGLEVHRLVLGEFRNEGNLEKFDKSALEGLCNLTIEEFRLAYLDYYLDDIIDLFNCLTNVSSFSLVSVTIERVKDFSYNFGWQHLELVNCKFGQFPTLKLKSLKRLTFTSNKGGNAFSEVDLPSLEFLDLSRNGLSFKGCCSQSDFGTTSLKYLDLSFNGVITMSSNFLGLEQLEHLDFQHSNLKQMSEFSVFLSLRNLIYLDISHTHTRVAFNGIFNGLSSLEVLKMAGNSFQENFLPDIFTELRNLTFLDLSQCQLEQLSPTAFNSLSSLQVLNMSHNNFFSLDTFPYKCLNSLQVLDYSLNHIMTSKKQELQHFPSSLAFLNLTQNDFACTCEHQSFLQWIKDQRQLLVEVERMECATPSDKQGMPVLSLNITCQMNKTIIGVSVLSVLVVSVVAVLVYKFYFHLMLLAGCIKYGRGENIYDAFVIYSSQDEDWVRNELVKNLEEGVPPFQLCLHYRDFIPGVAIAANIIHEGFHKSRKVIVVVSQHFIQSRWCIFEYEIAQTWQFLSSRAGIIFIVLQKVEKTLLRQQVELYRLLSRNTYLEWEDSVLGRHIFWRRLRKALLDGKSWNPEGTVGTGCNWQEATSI", "sequence (Q9Y6Y9 17-160 limits assumed)": "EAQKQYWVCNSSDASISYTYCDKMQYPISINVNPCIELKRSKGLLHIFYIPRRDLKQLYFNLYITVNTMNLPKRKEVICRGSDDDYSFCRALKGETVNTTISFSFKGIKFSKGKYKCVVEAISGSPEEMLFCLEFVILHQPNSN", "assay": "Toll-Like Receptor (TLR) screening assay, TLR4", "conditions": "10 μM; control LPS"}, "[1]": {"test_system": "human toll-like receptors (TLR)", "assay": "Toll-like receptor test, overall statement", "conditions": "10 μM", "excerpt": "While the role of HMGB1 in cancer biology is complex, the influence of spermine on this danger signaling biomolecule is well established. […] It could be that the tumor's propensity to secrete higher concentrations of spermine allow them to hide from the immune system by negating HMGB1 ability to stimulate an immune response. Therefore, the balance between pro-immune effects of HMGB1 and the counter-immune effects of spermine mediated through this pathway may be shifted by using PBT."}, "human TLR5": {"target": "human TLR5 (Homo sapiens, UniProt O60602)", "sequence (O60602 21-858)": "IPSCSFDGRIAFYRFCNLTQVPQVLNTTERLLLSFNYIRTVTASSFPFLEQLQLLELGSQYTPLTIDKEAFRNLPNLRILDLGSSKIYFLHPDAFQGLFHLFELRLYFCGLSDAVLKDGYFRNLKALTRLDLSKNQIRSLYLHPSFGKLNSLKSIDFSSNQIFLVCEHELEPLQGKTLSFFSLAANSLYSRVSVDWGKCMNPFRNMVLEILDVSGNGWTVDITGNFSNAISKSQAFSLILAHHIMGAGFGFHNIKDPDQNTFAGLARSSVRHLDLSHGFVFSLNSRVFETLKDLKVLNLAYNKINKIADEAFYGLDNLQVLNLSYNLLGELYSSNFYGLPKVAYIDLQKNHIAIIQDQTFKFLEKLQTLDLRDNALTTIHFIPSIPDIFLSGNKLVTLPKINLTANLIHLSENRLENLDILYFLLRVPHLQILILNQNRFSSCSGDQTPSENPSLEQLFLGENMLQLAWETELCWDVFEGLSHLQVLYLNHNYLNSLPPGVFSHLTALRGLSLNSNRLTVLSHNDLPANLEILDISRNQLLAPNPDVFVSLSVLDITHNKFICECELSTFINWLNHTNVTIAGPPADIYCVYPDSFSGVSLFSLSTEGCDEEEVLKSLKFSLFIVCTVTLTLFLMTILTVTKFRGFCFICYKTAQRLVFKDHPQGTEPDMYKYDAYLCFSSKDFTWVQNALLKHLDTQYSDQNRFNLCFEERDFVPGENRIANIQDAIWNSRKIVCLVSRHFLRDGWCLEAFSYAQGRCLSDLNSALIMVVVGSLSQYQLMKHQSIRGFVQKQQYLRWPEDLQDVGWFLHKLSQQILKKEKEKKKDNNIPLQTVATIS", "assay": "Toll-Like Receptor (TLR) screening assay, TLR5", "conditions": "10 μM"}, "human TLR7": {"target": "T2, human TLR7 (Homo sapiens, UniProt Q9NYK1)", "T2 sequence (Q9NYK1 27-1049)": "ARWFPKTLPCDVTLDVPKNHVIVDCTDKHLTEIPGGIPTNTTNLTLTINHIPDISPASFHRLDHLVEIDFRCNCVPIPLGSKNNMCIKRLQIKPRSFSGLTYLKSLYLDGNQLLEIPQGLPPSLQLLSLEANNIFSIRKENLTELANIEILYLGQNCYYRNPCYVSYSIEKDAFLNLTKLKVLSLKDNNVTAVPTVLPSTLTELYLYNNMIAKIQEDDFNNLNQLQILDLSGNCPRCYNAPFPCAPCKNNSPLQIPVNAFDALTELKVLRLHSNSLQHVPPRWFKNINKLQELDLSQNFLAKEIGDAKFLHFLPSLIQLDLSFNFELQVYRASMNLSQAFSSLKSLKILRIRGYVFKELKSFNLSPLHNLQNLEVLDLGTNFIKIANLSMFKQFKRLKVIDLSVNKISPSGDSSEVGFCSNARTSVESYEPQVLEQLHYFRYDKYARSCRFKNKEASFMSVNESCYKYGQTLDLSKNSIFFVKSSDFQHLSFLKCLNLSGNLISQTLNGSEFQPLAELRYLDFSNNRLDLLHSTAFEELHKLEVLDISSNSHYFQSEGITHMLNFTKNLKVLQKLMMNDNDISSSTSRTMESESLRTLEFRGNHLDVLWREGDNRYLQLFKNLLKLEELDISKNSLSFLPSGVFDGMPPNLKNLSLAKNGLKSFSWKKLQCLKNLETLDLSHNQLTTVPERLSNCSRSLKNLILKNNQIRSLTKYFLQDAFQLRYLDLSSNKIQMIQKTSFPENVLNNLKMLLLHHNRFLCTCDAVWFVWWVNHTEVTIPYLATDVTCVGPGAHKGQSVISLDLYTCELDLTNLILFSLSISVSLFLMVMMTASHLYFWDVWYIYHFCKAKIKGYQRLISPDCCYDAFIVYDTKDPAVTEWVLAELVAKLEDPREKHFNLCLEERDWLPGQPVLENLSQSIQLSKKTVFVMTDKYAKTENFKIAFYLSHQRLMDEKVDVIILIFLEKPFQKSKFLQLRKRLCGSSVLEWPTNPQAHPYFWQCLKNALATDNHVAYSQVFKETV", "assay": "Toll-Like Receptor (TLR) screening assay, TLR7", "conditions": "10 μM"}, "[2]": {"test_system": "cultured cancer cell types (including MDA-MB-231, PC-3, A375 and SK-OV-3 among others)", "assay": "activity against cultured cancer cells in combination with DFMO", "excerpt": "Cancer cells can circumvent the ability of drugs such as α-difluoromethylornithine (DFMO) based on inhibition of polyamine biosynthesis, from completely depleting their internal polyamines by the importation of these molecules from external sources. […] The resulting novel two-drug combination therapy targeting cellular polyamine metabolism has shown exceptional efficacy against cutaneous squamous cell carcinomas (SCCs) in a transgenic ornithine decarboxylase (ODC) mouse model developed by us for the study of skin cancer. […] The availability of a potent polyamine transport inhibitor allows, for the first time, for a real test of the hypothesis that starving cells of polyamines will lead to objective clinical response. This therapy is molecularly-targeted, relatively nontoxic at the proposed dose, and consists of both a very well-characterized drug and a member of a novel chemical class."}, "human TLR 2": {"target": "human TLR 2 (Homo sapiens, UniProt O60603)", "sequence (O60603 21-784)": "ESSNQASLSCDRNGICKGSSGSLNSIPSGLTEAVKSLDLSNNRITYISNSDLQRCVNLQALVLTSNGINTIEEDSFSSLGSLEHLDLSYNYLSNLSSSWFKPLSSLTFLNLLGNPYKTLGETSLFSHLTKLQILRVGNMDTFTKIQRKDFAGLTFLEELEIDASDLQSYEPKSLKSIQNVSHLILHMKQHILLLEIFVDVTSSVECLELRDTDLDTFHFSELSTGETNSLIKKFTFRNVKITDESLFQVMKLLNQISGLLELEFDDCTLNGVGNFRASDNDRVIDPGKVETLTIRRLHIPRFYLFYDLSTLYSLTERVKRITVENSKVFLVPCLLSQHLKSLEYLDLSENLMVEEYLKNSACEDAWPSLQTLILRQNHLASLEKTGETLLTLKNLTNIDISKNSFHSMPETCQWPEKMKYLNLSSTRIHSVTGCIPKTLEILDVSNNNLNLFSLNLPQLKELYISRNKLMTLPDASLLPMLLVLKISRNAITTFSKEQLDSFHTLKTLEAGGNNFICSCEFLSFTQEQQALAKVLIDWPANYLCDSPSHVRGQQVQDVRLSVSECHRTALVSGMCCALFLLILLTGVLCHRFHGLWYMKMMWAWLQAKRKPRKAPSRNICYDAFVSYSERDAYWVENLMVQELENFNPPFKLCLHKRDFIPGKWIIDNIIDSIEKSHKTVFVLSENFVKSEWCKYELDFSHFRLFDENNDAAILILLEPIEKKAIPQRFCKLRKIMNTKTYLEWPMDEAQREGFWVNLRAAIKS", "assay": "Toll-Like Receptor (TLR) screening assay, TLR2", "conditions": "10 μM; control HKLM"}}, "data": [{"molecule": "CCCCCCCCCCCCCCCC(=O)NCCCC[C@@H](N)C(=O)NCCCNCCCCNCCCN", "note": "[AMXT 1501, D-Lys(C16acyl)-Spm]", "values": [{"measurement": "activity on TLR3", "setting": "human TLR3", "result": "no significant activity"}, {"measurement": "stimulatory effect on TLR4", "setting": "human TLR4", "result": "16 % of control"}, {"measurement": "stimulatory effect on human toll-like receptors", "setting": "[1]", "result": "no significant stimulatory effect"}, {"measurement": "activity on TLR5", "setting": "human TLR5", "result": "no significant activity"}, {"measurement": "activity on TLR7", "setting": "human TLR7", "result": "no significant activity"}, {"measurement": "nature of cell culture effects", "setting": "[2]", "result": "cytostatic and not cytotoxic"}, {"measurement": "potency compared with AMXT 1426", "setting": "[2]; in combination with DFMO", "result": "several orders of magnitude higher potency"}, {"measurement": "stimulatory effect on TLR2", "setting": "human TLR 2", "result": "19 % of control"}]}]}
